From patent publication US20080114007A1 (priority 2006, published 2008)

Biological target: CSF-1R (Homo sapiens, UniProt P07333)
Test: Peptide (non-phosphorylated) assay, fluorescence polarization competition immunoassay
Type: biochemical
Conditions: 0.7 nM CSF-1R, 308 μM SYEGNSYTFIDPTQ peptide, 1 mM ATP, 80 min; mean of at least three determinations; read-out: c-fms Peptide IC50
Procedure, shortened: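 Human CSF-1R kinase reaction started with ATP and run 80 min at room temperature, then stopped with EDTA. Phosphopeptide detected by fluorescence polarization competition using anti-phosphotyrosine antibody and PTK green tracer after 30 min. Controls used 4% DMSO, with EDTA added before reaction start for positive controls.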

Chain of CSF-1R (P07333 20-972): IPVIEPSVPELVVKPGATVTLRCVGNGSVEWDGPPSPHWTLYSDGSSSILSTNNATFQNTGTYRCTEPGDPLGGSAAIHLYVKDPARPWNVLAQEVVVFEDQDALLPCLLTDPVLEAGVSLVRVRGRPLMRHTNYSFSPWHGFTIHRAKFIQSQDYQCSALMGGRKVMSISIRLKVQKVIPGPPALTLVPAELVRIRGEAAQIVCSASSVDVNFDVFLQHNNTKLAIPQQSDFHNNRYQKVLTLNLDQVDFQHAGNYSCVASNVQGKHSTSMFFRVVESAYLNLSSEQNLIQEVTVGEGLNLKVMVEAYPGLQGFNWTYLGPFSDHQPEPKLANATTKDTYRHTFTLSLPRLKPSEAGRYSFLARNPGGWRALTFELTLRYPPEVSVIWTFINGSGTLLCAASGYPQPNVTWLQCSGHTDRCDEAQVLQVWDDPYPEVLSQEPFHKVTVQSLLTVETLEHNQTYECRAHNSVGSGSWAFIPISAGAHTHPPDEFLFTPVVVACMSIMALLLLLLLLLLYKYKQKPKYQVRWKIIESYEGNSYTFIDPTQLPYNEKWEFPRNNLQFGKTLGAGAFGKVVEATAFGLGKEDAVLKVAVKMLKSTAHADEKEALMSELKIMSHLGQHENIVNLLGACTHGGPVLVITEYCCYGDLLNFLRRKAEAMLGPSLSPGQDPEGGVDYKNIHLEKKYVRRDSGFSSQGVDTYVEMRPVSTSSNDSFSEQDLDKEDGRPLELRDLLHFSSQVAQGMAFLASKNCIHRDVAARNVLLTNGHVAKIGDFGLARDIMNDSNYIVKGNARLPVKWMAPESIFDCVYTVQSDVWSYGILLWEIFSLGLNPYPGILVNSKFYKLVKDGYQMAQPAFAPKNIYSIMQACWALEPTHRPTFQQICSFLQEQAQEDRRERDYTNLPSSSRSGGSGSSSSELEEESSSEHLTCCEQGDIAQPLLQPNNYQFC

Row | IC50 [nM] | Compound
1 | 3.7 | C#Cc1ccc(-n2cc(C(=O)NOC)c(=O)c3cnc(Nc4ccc(CCN5CCCC5)cc4)nc32)cc1 [Cpd 32, 8-(4-ethynyl-phenyl)-5-oxo-2-[4-(2-pyrrolidin-1-yl-ethyl)-phenylamino]-5,8-dihydro-pyrido[2,3-d]pyrimidine-6-carboxylic acid methoxy-amide]
2 | 4.1 | CC(C)ONC(=O)c1cn(C2CCCC2)c2nc(Nc3ccc(CCN4CCCC4)cc3)ncc2c1=O [Cpd 41, 8-cyclopentyl-5-oxo-2-[4-(2-pyrrolidin-1-yl-ethyl)-phenylamino]-5,8-dihydro-pyrido[2,3-d]pyrimidine-6-carboxylic acid isopropoxy-amide]
3 | 0.3 | CONC(=O)c1cn(-c2ccc3c(c2)CCC3)c2nc(Nc3ccc(OC4CCN(C)CC4)cc3)ncc2c1=O [Cpd 313, 8-indan-5-yl-2-[4-(1-methyl-piperidin-4-yloxy)-phenylamino]-5-oxo-5,8-dihydro-pyrido[2,3-d]pyrimidine-6-carboxylic acid methoxy-amide]
4 | 0.95 | CONC(=O)c1cn(-c2ccc3c(c2)CCC3)c2nc(Nc3ccc(CCS(=O)(=O)NC(C)C)cc3)ncc2c1=O [Cpd 77, 8-indan-5-yl-2-[4-(2-isopropylsulfamoyl-ethyl)-phenylamino]-5-oxo-5,8-dihydro-pyrido[2,3-d]pyrimidine-6-carboxylic acid methoxy-amide]
5 | 0.9 | CCc1ccc(-n2cc(C(=O)NOC)c(=O)c3cnc(Nc4ccc(C5CCN(CC(=O)O)CC5)cc4)nc32)cc1 [Cpd 94, (4-{4-[8-(4-ethyl-phenyl)-6-methoxycarbamoyl-5-oxo-5,8-dihydro-pyrido[2,3-d]pyrimidin-2-ylamino]-phenyl}-piperidin-1-yl)-acetic acid]
6 | 0.2 | CCc1ccc(-n2cc(C(=O)NOC)c(=O)c3cnc(Nc4ccc5c(c4)CNCC5)nc32)cc1 [Cpd 282, 8-(4-ethyl-phenyl)-5-oxo-2-(1,2,3,4-tetrahydro-isoquinolin-7-ylamino)-5,8-dihydro-pyrido[2,3-d]pyrimidine-6-carboxylic acid methoxy-amide]
7 | 2.9 | CONC(=O)c1cn(-c2ccc3c(c2)CCC3)c2nc(Nc3ccc(C4CCN(CC(F)(F)C(F)(F)F)CC4)cc3)ncc2c1=O [Cpd 293, 8-indan-5-yl-5-oxo-2-{4-[1-(2,2,3,3,3-pentafluoro-propyl)-piperidin-4-yl]-phenylamino}-5,8-dihydro-pyrido[2,3-d]pyrimidine-6-carboxylic acid methoxy-amide]
8 | 2.2 | CONC(=O)c1cn(-c2ccc3c(c2)CCC3)c2nc(Nc3ccc(C4CCN(CC(=O)O)CC4)cc3)ncc2c1=O [Cpd 85, {4-[4-(8-indan-5-yl-6-methoxycarbamoyl-5-oxo-5,8-dihydro-pyrido[2,3-d]pyrimidin-2-ylamino)-phenyl]-piperidin-1-yl}-acetic acid]
9 | 0.9 | CCc1ccc(-n2cc(C(=O)NOC)c(=O)c3cnc(Nc4ccc(OCCOC)c(OCCOC)c4)nc32)cc1 [Cpd 308, 2-[3,4-bis-(2-methoxy-ethoxy)-phenylamino]-8-(4-ethyl-phenyl)-5-oxo-5,8-dihydro-pyrido[2,3-d]pyrimidine-6-carboxylic acid methoxy-amide]
10 | 2.1 | CONC(=O)c1cn(-c2ccc(OC(F)(F)F)cc2)c2nc(Nc3ccc(C4CCN(CCO)CC4)cc3)ncc2c1=O [Cpd 162, 2-{4-[1-(2-hydroxyethyl)-piperidin-4-yl]-phenylamino}-5-oxo-8-(4-trifluoromethoxy-phenyl)-5,8-dihydropyrido[2,3-d]pyrimidine-6-carboxylic acid methoxy-amide]
11 | 3 | CCc1ccc(-n2cc(C(=O)NOC)c(=O)c3cnc(Nc4ccc(CC(=O)NN5CCCCC5)cc4)nc32)cc1 [Cpd 104, 8-(4-ethyl-phenyl)-5-oxo-2-[4-(piperidin-1-ylcarbamoylmethyl)-phenylamino]-5,8-dihydro-pyrido[2,3-d]pyrimidine-6-carboxylic acid methoxy-amide]
12 | 0.87 | CCc1ccc(-n2cc(C(=O)NOC)c(=O)c3cnc(Nc4ccc(CCN5CCN(C)C(=O)C5)cc4)nc32)cc1 [Cpd 221, 8-(4-ethyl-phenyl)-2-{4-[2-(4-methyl-3-oxo-piperazin-1-yl)-ethyl]-phenylamino}-5-oxo-5,8-dihydro-pyrido[2,3-d]pyrimidine-6-carboxylic acid methoxy-amide]
13 | 4.9 | CCc1ccc(-n2cc(C(=O)NOC(CC)CC)c(=O)c3cnc(Nc4ccc(CCN5CCN(C)CC5)cc4)nc32)cc1 [Cpd 93, 8-(4-ethyl-phenyl)-2-{4-[2-(4-methyl-piperazin-1-yl)-ethyl]-phenylamino}-5-oxo-5,8-dihydro-pyrido[2,3-d]pyrimidine-6-carboxylic acid (1-ethyl-propoxy)-amide]
14 | 130 | CC(C)ONC(=O)c1cn(C2CC2)c2nc(Nc3ccc(CCN4CCCC4)cc3)ncc2c1=O [Cpd 143, 8-cyclopropyl-5-oxo-2-[4-(2-pyrrolidin-1-yl-ethyl)-phenylamino]-5,8-dihydro-pyrido[2,3-d]pyrimidine-6-carboxylic acid isopropoxy-amide]
15 | 1 | CCONC(=O)c1cn(C2CCCCC2)c2nc(Nc3ccc(C4CCN(C(C)=O)CC4)cc3)ncc2c1=O [Cpd 29, 2-[4-(1-acetyl-piperidin-4-yl)-phenylamino]-8-cyclohexyl-5-oxo-5,8-dihydro-pyrido[2,3-d]pyrimidine-6-carboxylic acid ethoxy-amide]
16 | 0.4 | CCc1ccc(-n2cc(C(=O)NOC)c(=O)c3cnc(Nc4ccc5c(c4)OCCOCCOCCOCCO5)nc32)cc1 [Cpd 297, 8-(4-ethyl-phenyl)-2-(6,7,9,10,12,13,15,16-octahydro-5,8,11,14,17-pentaoxa-benzocyclopentadecen-2-ylamino)-5-oxo-5,8-dihydro-pyrido[2,3-d]pyrimidine-6-carboxylic acid methoxy-amide]
17 | 1.7 | CONC(=O)c1cn(-c2ccc3c(c2)CCC3)c2nc(Nc3ccc(CCN4CCCC(F)(F)C4)cc3)ncc2c1=O
18 | 4.1 | CCc1ccc(-n2cc(C(=O)NOC)c(=O)c3cnc(Nc4ccc(C5CCN(CC(F)(F)F)CC5)cc4)nc32)cc1 [Cpd 188, 8-(4-ethyl-phenyl)-5-oxo-2-{4-[1-(2,2,2-trifluoro-ethyl)-piperidin-4-yl]-phenylamino}-5,8-dihydro-pyrido[2,3-d]pyrimidine-6-carboxylic acid methoxy-amide]
19 | 1.4 | CCc1ccc(-n2cc(C(=O)NOC)c(=O)c3cnc(Nc4ccc(CC(=O)NN(C)C)cc4)nc32)cc1 [Cpd 105, 2-[4-(N′,N′-dimethyl-hydrazinocarbonylmethyl)-phenylamino]-8-(4-ethyl-phenyl)-5-oxo-5,8-dihydro-pyrido[2,3-d]pyrimidine-6-carboxylic acid methoxy-amide]
20 | 4.5 | CCc1ccc(-n2cc(C(=O)NOC(C)C)c(=O)c3cnc(Nc4ccc(C5CCN(C(C)=O)CC5)cc4)nc32)cc1 [Cpd 59, 2-[4-(1-acetyl-piperidin-4-yl)-phenylamino]-8-(4-ethyl-phenyl)-5-oxo-5,8-dihydro-pyrido[2,3-d]pyrimidine-6-carboxylic acid isopropoxy-amide]
21 | 0.6 | CCONC(=O)c1cn(-c2ccc(CC)cc2)c2nc(Nc3ccc(C4CCN(CCCO)CC4)cc3)ncc2c1=O [Cpd 186, 8-(4-ethyl-phenyl)-2-{4-[1-(3-hydroxy-propyl)-piperidin-4-yl]-phenylamino}-5-oxo-5,8-dihydro-pyrido[2,3-d]pyrimidine-6-carboxylic acid ethoxy-amide]
22 | 0.66 | CONC(=O)c1cn(-c2ccc3c(c2)CCC3)c2nc(Nc3ccc(CCN4CC[C@H](F)C4)cc3)ncc2c1=O [Cpd 253, 2-(4-{2-[(3S)-(3-fluoro-pyrrolidin-1-yl)]-ethyl}-phenylamino)-8-indan-5-yl-5-oxo-5,8-dihydro-pyrido[2,3-d]pyrimidine-6-carboxylic acid methoxy-amide]
23 | 1 | CCc1ccc(-n2cc(C(=O)NOC)c(=O)c3cnc(Nc4cccc(OCCOC)c4)nc32)cc1 [Cpd 215, 8-(4-ethyl-phenyl)-2-[3-(2-methoxy-ethoxy)-phenylamino]-5-oxo-5,8-dihydro-pyrido[2,3-d]pyrimidine-6-carboxylic acid methoxy-amide]
24 | 0.58 | CONC(=O)c1cn(-c2ccc3c(c2)CCC3)c2nc(Nc3ccc(C4CCN(C(C)C)CC4)cc3)ncc2c1=O [Cpd 111, 8-indan-5-yl-2-[4-(1-isopropyl-piperidin-4-yl)-phenylamino]-5-oxo-5,8-dihydro-pyrido[2,3-d]pyrimidine-6-carboxylic acid methoxy-amide]
25 | 4.2 | CONC(=O)c1cn(-c2ccc3c(c2)CCC3)c2nc(Nc3ccc(CCc4ncn[nH]4)cc3)ncc2c1=O [Cpd 190, 8-indan-5-yl-5-oxo-2-{4-[2-(1H-[1,2,4]triazol-3-yl)-ethyl]-phenylamino}-5,8-dihydro-pyrido[2,3-d]pyrimidine-6-carboxylic acid methoxy-amide]
26 | 7 | CONC(=O)c1cn(-c2cnc3c(c2)CCC3)c2nc(Nc3ccc(C4CCN(C)CC4)cc3)ncc2c1=O [Cpd 225, 8-(6,7-dihydro-5H-[1]pyrindin-3-yl)-2-[4-(1-methyl-piperidin-4-yl)-phenylamino]-5-oxo-5,8-dihydro-pyrido[2,3-d]pyrimidine-6-carboxylic acid methoxy-amide]
27 | 0.5 | CCONC(=O)c1cn(-c2ccc(C)c(C)c2)c2nc(Nc3ccc(CCN4CCN(C)CC4)cc3)ncc2c1=O [Cpd 53, 8-(3,4-dimethyl-phenyl)-2-{4-[2-(4-methyl-piperazin-1-yl)-ethyl]-phenylamino}-5-oxo-5,8-dihydro-pyrido[2,3-d]pyrimidine-6-carboxylic acid ethoxy-amide]

Row | Compound | IC50 [nM]
28 | CONC(=O)c1cn(-c2ccc3c(c2)CCC3)c2nc(Nc3cccc(C4(O)CCN(C)CC4)c3)ncc2c1=O [Cpd 272, 2-[3-(4-hydroxy-1-methyl-piperidin-4-yl)-phenylamino]-8-indan-5-yl-5-oxo-5,8-dihydro-pyrido[2,3-d]pyrimidine-6-carboxylic acid methoxy-amide] | 0.88
